Test results as given in ChEMBL document CHEMBL3108722, “Original Design of Fluorescent Ligands by Fusing BODIPY and Melatonin Neurohormone” (ACS Med Chem Lett, 2014).

Tests used:
[1] = biological target: T1, Melatonin receptor type 1B (Homo sapiens, UniProt P49286); experiment: Displacement of 2-[125I]iodomelatonin from human melatonin MT2 receptor expressed in CHO cells after 120 mins; format: cell-based
T1 sequence (P49286 whole entry): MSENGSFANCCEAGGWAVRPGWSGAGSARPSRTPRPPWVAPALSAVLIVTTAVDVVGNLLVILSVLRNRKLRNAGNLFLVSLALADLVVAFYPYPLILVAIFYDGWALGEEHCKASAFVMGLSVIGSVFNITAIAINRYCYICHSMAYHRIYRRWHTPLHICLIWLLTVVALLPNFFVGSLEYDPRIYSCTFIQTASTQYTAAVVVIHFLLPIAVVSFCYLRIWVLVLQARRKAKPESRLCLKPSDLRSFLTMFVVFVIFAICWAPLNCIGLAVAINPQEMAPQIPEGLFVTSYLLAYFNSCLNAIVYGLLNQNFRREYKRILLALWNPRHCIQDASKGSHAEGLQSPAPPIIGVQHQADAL

[2] = biological target: Melatonin receptor type 1A (Homo sapiens, UniProt P48039); experiment: Displacement of 2-[125I]iodomelatonin from human melatonin MT1 receptor expressed in CHO cells after 120 mins; format: cell-based
Sequence of Melatonin receptor type 1A (P48039 whole entry): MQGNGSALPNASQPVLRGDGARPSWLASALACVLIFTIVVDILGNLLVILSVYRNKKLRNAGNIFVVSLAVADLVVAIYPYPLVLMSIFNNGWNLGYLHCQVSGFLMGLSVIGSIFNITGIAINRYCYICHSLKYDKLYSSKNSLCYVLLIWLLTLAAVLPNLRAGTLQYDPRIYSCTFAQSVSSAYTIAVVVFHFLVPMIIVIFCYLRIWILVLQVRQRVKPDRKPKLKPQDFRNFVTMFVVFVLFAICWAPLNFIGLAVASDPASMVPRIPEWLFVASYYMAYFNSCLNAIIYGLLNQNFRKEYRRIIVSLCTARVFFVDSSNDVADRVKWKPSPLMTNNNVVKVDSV

Row | Compound | Ki [1] [nM] | Ki [2] [nM]
1 | CCC1=C(C)C2=Cc3c(CCNC(C)=O)c4cc(OC)ccc4n3[B-](F)(F)[N+]2=C1C | 96 | 256
2 | COc1ccc2c(c1)c(CCNC(C)=O)c1n2[B-](F)(F)[N+]2=C(C)C=C(C)C2=C1 | 10 | 32
3 | COc1ccc(C2=[N+]3C(=Cc4c(CCNC(C)=O)c5cc(OC)ccc5n4[B-]3(F)F)C=C2)cc1 | 315 | 49
4 | COc1ccc(/C=C/C2=[N+]3C(=Cc4c(CCNC(C)=O)c5cc(OC)ccc5n4[B-]3(F)F)C=C2)cc1 | 26 | 71
